O=P1(O)OCC2(CO1)COP(=O)(O)OC2 (stereo unspecified)
Conditions	solubility (mole fraction)
in 1,4-dioxane, 293.16 K	0.00025
in 1,4-dioxane, 298.17 K	0.00028
in 1,4-dioxane, 303.16 K	0.00031
in 1,4-dioxane, 308.17 K	0.00035
in 1,4-dioxane, 313.16 K	0.0004
in 1,4-dioxane, 318.18 K	0.00045
in 1,4-dioxane, 323.16 K	0.0005
in 1,4-dioxane, 328.16 K	0.00055
in 1,4-dioxane, 333.17 K	0.0006
in 1,4-dioxane, 338.15 K	0.00066
in 2-butanone, 293.16 K	0.0006
in 2-butanone, 298.17 K	0.0007
in 2-butanone, 303.16 K	0.0008
in 2-butanone, 308.17 K	0.001
in 2-butanone, 313.16 K	0.0011
in 2-butanone, 318.18 K	0.0013
in 2-butanone, 323.16 K	0.0015
in 2-butanone, 328.16 K	0.0016
in 2-butanone, 333.17 K	0.0018
in acetic acid, 293.16 K	0.00017
in acetic acid, 298.17 K	0.00022
in acetic acid, 303.16 K	0.00026
in acetic acid, 308.17 K	0.00032
in acetic acid, 313.16 K	0.0004
in acetic acid, 318.18 K	0.00048
in acetic acid, 323.16 K	0.00057
in acetic acid, 328.16 K	0.00067
in acetic acid, 333.17 K	0.00078
in acetic acid, 338.15 K	0.00092
in acetone, 295.75 K	0.004
in acetone, 297.55 K	0.0041
in acetone, 299.85 K	0.0043
in acetone, 301.45 K	0.0044
in acetone, 303.15 K	0.0045
in acetone, 305.35 K	0.0047
in acetone, 307.95 K	0.0049
in acetone, 309.15 K	0.005
in acetone, 313.35 K	0.0053
in acetone, 317.15 K	0.0057
in acetone, 319.15 K	0.0058
in acetonitrile, 309.35 K	0.0006
in acetonitrile, 311.25 K	0.0007
in acetonitrile, 313.25 K	0.0009
in acetonitrile, 315.45 K	0.001
in acetonitrile, 317.35 K	0.0012
in acetonitrile, 319.55 K	0.0015
in acetonitrile, 321.55 K	0.0017
in acetonitrile, 323.25 K	0.002
in acetonitrile, 325.75 K	0.0025
in acetonitrile, 327.45 K	0.0028
in acetonitrile, 329.45 K	0.0032
in acetonitrile, 331.55 K	0.0038
in benzene, 293.16 K	0.00031
in benzene, 298.17 K	0.00038
in benzene, 303.16 K	0.00047
in benzene, 308.17 K	0.00059
in benzene, 313.16 K	0.0007
in benzene, 318.18 K	0.00088
in benzene, 323.16 K	0.00103
in benzene, 328.16 K	0.00123
in benzene, 333.17 K	0.00146
in benzene, 338.15 K	0.00176
in chloroform, 293.16 K	0.00046
in chloroform, 298.17 K	0.00054
in chloroform, 303.16 K	0.00067
in chloroform, 308.17 K	0.00081
in chloroform, 313.16 K	0.00094
in chloroform, 318.18 K	0.00114
in chloroform, 323.16 K	0.00137
in chloroform, 328.16 K	0.00163
in chloroform, 333.17 K	0.00192
in chloroform, 338.15 K	0.00222
in cyclohexane, 293.16 K	0.00016
in cyclohexane, 298.17 K	0.00019
in cyclohexane, 303.16 K	0.00022
in cyclohexane, 308.17 K	0.00025
in cyclohexane, 313.16 K	0.00028
in cyclohexane, 318.18 K	0.00032
in cyclohexane, 323.16 K	0.00037
in cyclohexane, 328.16 K	0.00041
in cyclohexane, 333.15 K	0.00046
in cyclohexane, 338.15 K	0.00052
in dichloromethane, 291.16 K	0.00027
in dichloromethane, 295.18 K	0.00032
in dichloromethane, 299.16 K	0.00037
in dichloromethane, 303.19 K	0.00045
in dichloromethane, 305.2 K	0.00048
in dichloromethane, 309.15 K	0.00056
in diethyl ether, 291.16 K	0.00053
in diethyl ether, 295.18 K	0.00073
in diethyl ether, 299.16 K	0.00096
in diethyl ether, 303.19 K	0.00124
in diethyl ether, 305.2 K	0.0014
in ethyl acetate, 293.16 K	0.00078
in ethyl acetate, 298.17 K	0.00092
in ethyl acetate, 303.16 K	0.00109
in ethyl acetate, 308.17 K	0.00129
in ethyl acetate, 313.16 K	0.00152
in ethyl acetate, 318.18 K	0.00177
in ethyl acetate, 323.16 K	0.00204
in ethyl acetate, 328.16 K	0.00229
in ethyl acetate, 333.17 K	0.00271
in ethyl acetate, 338.15 K	0.00315
in toluene, 293.16 K	0.00046
in toluene, 298.17 K	0.00059
in toluene, 303.16 K	0.00071
in toluene, 308.17 K	0.00086
in toluene, 313.16 K	0.00104
in toluene, 318.18 K	0.00122
in toluene, 323.16 K	0.00146
in toluene, 328.16 K	0.00176
in toluene, 333.17 K	0.00209
in toluene, 338.15 K	0.00248

O=C(O)CCP(=O)(O)c1ccccc1
Conditions	solubility (mole fraction)
in 2-butanone, 293.16 K	0.00061
in 2-butanone, 298.17 K	0.00077
in 2-butanone, 303.18 K	0.00103
in 2-butanone, 308.14 K	0.00127
in 2-butanone, 313.16 K	0.00163
in 2-butanone, 318.17 K	0.00206
in 2-butanone, 323.16 K	0.00253
in 2-butanone, 328.16 K	0.00316
in 2-butanone, 333.15 K	0.00395
in 2-ethoxyethanol, 293.16 K	0.0461
in 2-ethoxyethanol, 298.17 K	0.0512
in 2-ethoxyethanol, 303.18 K	0.0571
in 2-ethoxyethanol, 308.14 K	0.0638
in 2-ethoxyethanol, 313.16 K	0.0709
in 2-ethoxyethanol, 318.17 K	0.0777
in 2-ethoxyethanol, 323.16 K	0.0849
in 2-ethoxyethanol, 328.16 K	0.0937
in 2-ethoxyethanol, 333.15 K	0.102
in acetic acid, 293.16 K	0.0105
in acetic acid, 298.17 K	0.0116
in acetic acid, 303.18 K	0.013
in acetic acid, 308.14 K	0.0147
in acetic acid, 313.16 K	0.0164
in acetic acid, 318.17 K	0.0182
in acetic acid, 323.16 K	0.0205
in acetic acid, 328.16 K	0.0225
in acetic acid, 333.15 K	0.0249
in acetone, 293.16 K	0.00074
in acetone, 298.17 K	0.00093
in acetone, 303.18 K	0.00124
in acetone, 308.14 K	0.00153
in acetone, 313.16 K	0.00197
in acetone, 318.17 K	0.00248
in acetone, 323.16 K	0.00305
in acetonitrile, 293.16 K	6e-05
in acetonitrile, 298.17 K	0.0001
in acetonitrile, 303.18 K	0.00015
in acetonitrile, 308.14 K	0.00023
in acetonitrile, 313.16 K	0.00035
in acetonitrile, 318.17 K	0.00053
in acetonitrile, 323.16 K	0.00078
in acetonitrile, 328.16 K	0.00109
in acetonitrile, 333.15 K	0.00161
in benzene, 293.16 K	0.00081
in benzene, 298.17 K	0.00091
in benzene, 303.18 K	0.00099
in benzene, 308.14 K	0.00107
in benzene, 313.16 K	0.00114
in benzene, 318.17 K	0.00126
in benzene, 323.16 K	0.00134
in benzene, 328.16 K	0.00145
in benzene, 333.15 K	0.00156
in chloroform, 288.15 K	0.00021
in chloroform, 293.16 K	0.00026
in chloroform, 298.17 K	0.00033
in chloroform, 303.18 K	0.00041
in chloroform, 308.14 K	0.00052
in chloroform, 313.16 K	0.00063
in chloroform, 318.17 K	0.00079
in chloroform, 323.16 K	0.00093
in chloroform, 328.16 K	0.00112
in chloroform, 333.15 K	0.00133
in cyclohexane, 293.16 K	0.00088
in cyclohexane, 298.17 K	0.00108
in cyclohexane, 303.18 K	0.00128
in cyclohexane, 308.14 K	0.00157
in cyclohexane, 313.16 K	0.00186
in cyclohexane, 318.17 K	0.00222
in cyclohexane, 323.16 K	0.00263
in cyclohexane, 328.16 K	0.00314
in cyclohexane, 333.15 K	0.00371
in dichloromethane, 288.15 K	0.00029
in dichloromethane, 293.16 K	0.00042
in dichloromethane, 298.17 K	0.00059
in dichloromethane, 303.18 K	0.0008
in dichloromethane, 308.14 K	0.00111
in dichloromethane, 313.16 K	0.00149
in ethyl acetate, 293.16 K	0.00128
in ethyl acetate, 298.17 K	0.00148
in ethyl acetate, 303.18 K	0.00162
in ethyl acetate, 308.14 K	0.00182
in ethyl acetate, 313.16 K	0.00202
in ethyl acetate, 318.17 K	0.00226
in ethyl acetate, 323.16 K	0.00254
in ethyl acetate, 328.16 K	0.00281
in ethyl acetate, 333.15 K	0.00311
in toluene, 293.16 K	0.00051
in toluene, 298.17 K	0.00059
in toluene, 303.18 K	0.00068
in toluene, 308.14 K	0.00079
in toluene, 313.16 K	0.00092
in toluene, 318.17 K	0.00105
in toluene, 323.16 K	0.00119
in toluene, 328.16 K	0.00138
in toluene, 333.15 K	0.00154
in water, 298.25 K	0.00178
in water, 308.66 K	0.00366
in water, 318.07 K	0.00671
in water, 327.17 K	0.0133
in water, 337.55 K	0.0249
in water, 342.75 K	0.0339
in water, 345.06 K	0.0412
in water, 349.47 K	0.0568

Reference: BigSolDB 2.1
